The target of data set [1] is T1, HCV polymerase (NS5B570n-Con1) (Hepatitis C virus genotype 1b, UniProt Q9WMX2).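 Further: recombinant His-tagged enzyme from E. coli, radiolabeled nucleotide incorporation into acid-insoluble RNA read by scintillation after filtration, no-enzyme background subtracted, activity relative to positive control.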
T1 construct: contains a 21 amino acid deletion at the C-terminus relative to the full-length HCV polymerase; 6-histidine (N); made in house; host or cells: E. coli strain BL21(DE) pLysS (pET17b)
Kind of data set: biochemical. The settings on record: IC50 HCV NS5B RNA Polymerase Assay, values without asterisk; 20 nM NS5B570n-Con1 enzyme, 20 nM cIRES RNA template. Set-up: species or system HCV Con1 strain.

This note sets out measurements from US8273773B2 (priority 2008, dated 2012).

Structures are written as SMILES. pIC50: −log10 of the molar value.

For `COc1c(C(=O)c2cccc(C(N)=O)c2)cc(-c2ccc[nH]c2=O)cc1C(C)(C)C` [I-63], the melting point lay within 150 to 160 °C. In addition, the pIC50 in data set [1] was 8.00.

`COc1c(CCc2ccc(NS(C)(=O)=O)cc2)cc(-c2ccc(C)[nH]c2=O)cc1C(C)(C)C` [I-64, N-(4-{2-[3-tert-Butyl-2-methoxy-5-(6-methyl-2-oxo-1,2-dihydro-pyridin-3-yl)-phenyl]-ethyl}-phenyl)-methanesulfonamide] displayed a melting point of 239 to 241 °C. Further, in data set [1], the pIC50 was 8.10.

As for `COc1c(C(=O)c2cccc(CNS(C)(=O)=O)c2)cc(-c2ccc[nH]c2=O)cc1C(C)(C)C` [I-65], the melting point was in the range of 110 to 115 °C. The molecule also showed a pIC50 in data set [1] of 7.52.

`COc1c(CCc2ccc(NS(C)(=O)=O)cc2)cc(-c2cc(F)c[nH]c2=O)cc1C(C)(C)C` [I-67]: the melting point was in the range of 125 to 130 °C. The molecule also gave a pIC50 in data set [1] of 8.00.

The molecule `COc1c(C(=O)Nc2ccccc2)cc(-c2ccc[nH]c2=O)cc1C(C)(C)C` [I-68] had a melting point of 288 to 290 °C. The molecule also gave a pIC50 in data set [1] of 6.97.

Take `COc1c(C(=O)Nc2ccc(NS(C)(=O)=O)cc2C)cc(-c2ccc[nH]c2=O)cc1C(C)(C)C` [I-69, 3-tert-Butyl-N-(4-methanesulfonylamino-2-methyl-phenyl)-2-methoxy-5-(2-oxo-1,2-dihydro-pyridin-3-yl)-benzamide]: the melting point is 278 to 280 °C. The molecule also showed a pIC50 in data set [1] of 7.89.

Consider `COc1c(NC(=O)c2ccc(N)cc2)cc(-c2ccc[nH]c2=O)cc1C(C)(C)C` [I-72], for which the melting point lay within 190 to 193 °C. In data set [1], this molecule gave a pIC50 of 7.47.

With `CC(C)(C)c1cc(-c2ccc[nH]c2=O)cc(NC(=O)c2ccc(NS(C)(=O)=O)cc2)c1F` [I-73, N-[3-tert-Butyl-2-fluoro-5-(2-oxo-1,2-dihydro-pyridin-3-yl)-phenyl]-4-methanesulfonylamino-benzamide], the melting point is 286 to 288 °C. In addition, in data set [1], the pIC50 is 7.27.

With `CC(C)(C)c1cc(CCc2ccc(NS(C)(=O)=O)cc2)cc(-c2ccc[nH]c2=O)c1` [I-74], the melting point fell in the range of 211 to 213 °C. For the same molecule, the pIC50 in data set [1] was 7.60.

Turning to `COc1c(C(=O)Nc2ccc(CNS(C)(=O)=O)cc2)cc(-c2ccc[nH]c2=O)cc1C(C)(C)C` [I-76], the melting point is 213 to 216 °C. Moreover, in data set [1], the pIC50 was 7.21.

Turning to `CC(=O)Nc1c(CCc2ccc(NS(C)(=O)=O)cc2)cc(C(C)(C)C)cc1-c1ccc[nH]c1=O` [I-80, N-[4-tert-Butyl-2-[2-(4-methanesulfonylamino-phenyl)-ethyl]-6-(2-oxo-1,2-dihydro-pyridin-3-yl)-phenyl]-acetamide], the melting point lay in the range of 180 to 182 °C. This molecule had a pIC50 in data set [1] of 7.01.

As to `COc1c(NC(=O)c2ccc(NS(C)(=O)=O)cc2)cc(-c2cc(F)c[nH]c2=O)cc1C(C)(C)C` [I-81], the melting point was in the range of 272 to 274 °C. Also, the pIC50 in data set [1] is 7.66.

Take `COc1c(NC(=O)c2ccc(NS(C)(=O)=O)cc2)cc(-c2ccc[nH]c2=O)cc1C1(C)CC1` [I-82]: the melting point was 254 to 256 °C. Further, the pIC50 in data set [1] is 8.22.

`CC(=O)Nc1ccc(CCc2cc(-c3ccc[nH]c3=O)cc(C(C)(C)C)c2)cc1` [I-83] came in with a melting point of 218 to 220 °C. Moreover, in data set [1], the pIC50 is 6.90.

Consider `COc1c(C(=O)c2ccnc(N)c2)cc(-c2ccc[nH]c2=O)cc1C(C)(C)C` [I-84, 3-[3-(2-Amino-pyridine-4-carbonyl)-5-tert-butyl-4-methoxy-phenyl]-1H-pyridin-2-one], for which the melting point was in the range of 140 to 145 °C. Further, in data set [1], the pIC50 was 7.49.

Turning to `CNC(=O)Nc1ccc(CCc2cc(-c3ccc[nH]c3=O)cc(C(C)(C)C)c2)cc1` [I-86], the melting point lay in the range of 237 to 239 °C. In addition, the pIC50 in data set [1] is 6.56.

The molecule `CC(C)(C)c1cc(CCc2ccc(NS(C)(=O)=O)cc2)c(C#N)c(-c2ccc[nH]c2=O)c1` [I-87, N-(4-{2-[5-tert-butyl-2-cyano-3-(2-oxo-1,2-dihydro-pyridin-3-yl)-phenyl]-ethyl}-phenyl)-methanesulfonamide] registered a melting point of 128 to 130 °C. This molecule also gave a pIC50 in data set [1] of 7.89.

In turn, `CC(C)(C)c1cc(CCc2ccc(NS(C)(=O)=O)cc2)cc(-c2cc(F)c[nH]c2=O)c1` [I-94] gave a melting point of 191 to 193 °C. The molecule also gave a negative-log IC50 (pIC50) in data set [1] of 8.00.

Regarding `CC(C)(C)c1cc(CCc2ccc(NS(C)(=O)=O)cc2)c(N)c(-c2ccc[nH]c2=O)c1` [I-98, N-(4-{2-[2-Amino-5-tert-butyl-3-(2-oxo-1,2-dihydro-pyridin-3-yl)-phenyl]-ethyl}-phenyl)-methanesulfonamide], the melting point is 140 to 142 °C. This molecule showed a pIC50 in data set [1] of 8.15.

Take `COc1c(CCc2ccc(N)cc2)cc(-c2ccc[nH]c2=O)cc1C1(C)CC1` [I-99, 3-[3-[2-(4-amino-phenyl)-ethyl]-4-methoxy-5-(1-methyl-cyclopropyl)-phenyl]-1H-pyridin-2-one]: the melting point fell in the range of 209 to 211 °C. In addition, in data set [1], the negative-log IC50 (pIC50) is 6.23.

`COc1c(C(=O)c2cccc(NS(C)(=O)=O)c2)cc(-c2ccc[nH]c2=O)cc1C(C)(C)C` [I-100, N-{3-[3-tert-Butyl-2-methoxy-5-(2-oxo-1,2-dihydro-pyridin-3-yl)-benzoyl]-phenyl}-methanesulfonamide]: the melting point was in the range of 261 to 263 °C. The molecule further had a pIC50 in data set [1] of 7.80.

Molecule `COc1c(C(=O)NC2CCCCC2)cc(-c2ccc[nH]c2=O)cc1C(C)(C)C` [I-101] gave a melting point of 136 to 138 °C. The pIC50 in data set [1] is 6.12.

The molecule `COc1c(CCc2ccc(NS(C)(=O)=O)cc2F)cc(-c2ccc[nH]c2=O)cc1C(C)(C)C` [I-102, N-(4-{2-[3-tert-Butyl-2-methoxy-5-(2-oxo-1,2-dihydro-pyridin-3-yl)-phenyl]-ethyl}-3-fluoro-phenyl)-methanesulfonamide] came in with a melting point of 120 to 122 °C. Moreover, in data set [1], the pIC50 is 8.10.

For the molecule `COc1c(CCc2ccc(NS(C)(=O)=O)c(F)c2)cc(-c2ccc[nH]c2=O)cc1C(C)(C)C` [I-103], the melting point fell in the range of 111 to 113 °C. Besides, the pIC50 in data set [1] is 8.10.

Take `COc1c(C(=O)c2cccc(CN)c2)cc(-c2ccc[nH]c2=O)cc1C(C)(C)C` [I-106]: the melting point was in the range of 110 to 115 °C. In data set [1], this molecule had a pIC50 of 7.62.

`CC(C)(C)c1cc(-c2ccc[nH]c2=O)cc(S(=O)(=O)c2ccccc2)c1` [I-107, 3-(3-Benzenesulfonyl-5-tert-butyl-phenyl)-1H-pyridin-2-one] returned a melting point of 252 to 253 °C. Besides, the pIC50 in data set [1] was 5.60.

On to `COc1c(CCc2ccc(NS(C)(=O)=O)cc2)cc(-c2ccc[nH]c2=O)cc1C1(C)CC1` [I-108, N-(4-{2-[2-Methoxy-3-(1-methyl-cyclopropyl)-5-(2-oxo-1,2-dihydro-pyridin-3-yl)-phenyl]-ethyl}-phenyl)-methanesulfonamide], for which the melting point was in the range of 192 to 194 °C. The molecule further gave a negative logarithm of the IC50 (pIC50) in data set [1] of 8.22.

In the case of `COc1c(CCc2ccc(NS(C)(=O)=O)cc2C)cc(-c2ccc[nH]c2=O)cc1C(C)(C)C` [I-109, N-(4-{2-[3-tert-Butyl-2-methoxy-5-(2-oxo-1,2-dihydro-pyridin-3-yl)-phenyl]-ethyl}-3-methyl-phenyl)-methanesulfonamide], the melting point was 240 to 242 °C. This molecule also gave a pIC50 in data set [1] of 8.15.

In the case of `COc1c(CCc2ccc(NS(C)(=O)=O)c(C)c2)cc(-c2ccc[nH]c2=O)cc1C(C)(C)C` [I-110], the melting point lay in the range of 114 to 116 °C. Further, the pIC50 in data set [1] is 7.80.

As to `COc1c(C(=O)Nc2cccc(CNS(C)(=O)=O)c2)cc(-c2ccc[nH]c2=O)cc1C(C)(C)C` [I-112, 3-tert-Butyl-N-[3-(methanesulfonylamino-methyl)-phenyl]-2-methoxy-5-(2-oxo-1,2-dihydro-pyridin-3-yl)-benzamide], the melting point is 145 to 147 °C. Besides, the negative-log IC50 (pIC50) in data set [1] is 7.32.

`CC(C)(C)c1cc(CCc2ccc(NS(C)(=O)=O)cn2)c(C#N)c(-c2ccc[nH]c2=O)c1` [I-114, N-(6-{2-[5-tert-Butyl-2-cyano-3-(2-oxo-1,2-dihydro-pyridin-3-yl)-phenyl]-ethyl}-pyridin-3-yl)-methanesulfonamide] yielded a melting point of 143 to 145 °C. In addition, the pIC50 in data set [1] is 7.82.

`CCOc1cc(NS(C)(=O)=O)ccc1C(=O)Nc1cc(-c2ccc[nH]c2=O)cc(C(C)(C)C)c1OC` [I-115] had a melting point of 290 to 292 °C. For the same molecule, the pIC50 in data set [1] is 8.05.

For the molecule `COc1c(NC(=O)c2ccc(NS(C)(=O)=O)cc2Cl)cc(-c2ccc[nH]c2=O)cc1C(C)(C)C` [I-116], the melting point was in the range of 263 to 265 °C. Further, the pIC50 in data set [1] was 7.96.

`CC(C)(C)c1cc(CCc2ccc(NS(C)(=O)=O)cc2)c(OCCO)c(-c2ccc[nH]c2=O)c1` [I-118, N-(4-{2-[5-tert-Butyl-2-(2-hydroxy-ethoxy)-3-(2-oxo-1,2-dihydro-pyridin-3-yl)-phenyl]-ethyl}-phenyl)-methanesulfonamide] came in with a melting point of 223 to 225 °C. In data set [1], this molecule had a pIC50 of 7.82.

In turn, `COc1c(NC(=O)c2ccc(N)c(F)c2)cc(-c2ccc[nH]c2=O)cc1C(C)(C)C` [I-120] came in with a melting point of 283 to 285 °C. The molecule further showed a pIC50 in data set [1] of 8.52.

In turn, `COc1c(NC(=O)c2ccc(NS(C)(=O)=O)c(F)c2)cc(-c2ccc[nH]c2=O)cc1C(C)(C)C` [I-121] came in with a melting point of 270 to 272 °C. The same molecule showed a pIC50 in data set [1] of 8.15.

As for `CC(C)(C)c1cc(CCc2ccc(NS(C)(=O)=O)cc2)c(C(N)=O)c(-c2ccc[nH]c2=O)c1` [I-122, 4-tert-Butyl-2-[2-(4-methanesulfonylamino-phenyl)-ethyl]-6-(2-oxo-1,2-dihydro-pyridin-3-yl)-benzamide], the melting point lay within 170 to 172 °C. Moreover, the pIC50 in data set [1] was 8.52.
